Data on 22 molecules can be found in patent US5512561A, “Aryl substituted dibenzoxazepine compounds, pharmaceutical compositions and methods of use” (G. D. Searle & Co., priority 1995, dated 1996).

Structures can show the parent of a compound that is named as a salt.

The test system of experiment [1] is mice. In words: Writhing Assay (PBQ-induced writhing, analgesia in mice). The class given is in vivo, mice (Charles River male albino). Conditions: Mus musculus, po, 25 min, intragastric, PBQ i.p. 25 minutes later, writhes <= one-half the median of saline control; for responders at 30 mg/kg: 30 mg per kilogram, read-out: WRITHING ASSAY Number Out of Nine or Ten (mice in which test compound produced analgesia) (converted); for responders at 10 mg/kg: 10 mg per kilogram, read-out: WRITHING ASSAY Number Out of Nine or Ten (mice in which test compound produced analgesia). The source says: The Writhing Assay is one of the most widely-used experimental procedures for measuring the analgesic activity of different narcotic and nonnarcotic analgesic agents, and involves the continuous, chemically-induced pain of visceral origin to an animal, such as a mouse or rat. Gyires et al., Arch. int. […] Vander Wende et al., Fed. […] Chemicals which may be used to induce this pain include phenylbenzoquinone (PBQ) and acetic acid. As a result of the chemical irritation to the animal, a characteristic stretching and writhing of the animal (dorsiflexion of the animal's back, extension of its hindlimbs and the strong contraction of its abdominal musculature) will generally occur. […] Drugs which reduce the number of writhes of the animal appear to restore the normal nociceptive threshold of the animal.
Charles River male albino mice, weighing 20 to 30 grams were used in this assay.
Ten mice which were given saline in place of a test compound of the invention were used as a control group.
Five minutes later, each mouse was individually placed into a glass beaker for observation, and the number of writhes occurring during the following ten-minute period was counted.

Experiment [2] relates to prostaglandin E2 -induced contractions of segments of guinea pig ileum. Nature of the experiment: Prostaglandin (PGE) Antagonism Assay in guinea pig ileum. The class given is cell-based. Conditions: dose ratio of EC50 doses of prostaglandin E2; initial test compound concentration 3 micromolar; 37° C. As for the experimental part:
In order to determine the effectiveness of several of the compounds of the present invention ("test compounds") as prostaglandin E2 antagonists,a prostaglandin antagonism assay was conducted, as described below, to determine the ability of these compounds to inhibit prostaglandin E2 -induced contractions of segments of guinea pig ileum. […] Male albino guinea pigs weighing 200 to 500 grams were sacrificed by cervical dislocation. The ilea were then quickly removed from the guinea pigs and placed in a modified Tyrode solution, a solution which is known to those skilled in the art, containing one-half of the usual amount of magnesium ions. Segments of ileum about 2 cm long were then cut and mounted in a 10-mL tissue bath containing the modified Tyrode solution. […] Data for a control prostaglandin E2 dose response curve plotting concentration of prostaglandin E2 versus the intensity of contractions, detected isotonically, was then obtained by experimentally adjusting the dose of the prostaglandin E2 being injected into the tissue bath, in a manner known by those of skill in the art. Solutions or suspensions containing an initial concentration (3 micromolar) of a test compound in modified Tyrode solution ("test solutions/suspensions") were then separately substituted for the control bath solution. Each test solution/suspension was then kept in constant contact with the ileum tissue, except for brief periods to drain the bath in preparation for rinsing with fresh test solution/suspension. A second prostaglandin E2 dose response curve was then generated for prostaglandin E2 in the presence of a test compound. A dose ratio of EC50 doses was then calculated from the results of each test in a manner known by those of skill in the art.

On to `O=S(=O)(c1ccc(CCc2ccncc2)cc1)N1Cc2ccccc2Oc2ccc(Cl)cc21` [Example 3, 8-chloro-10,11-dihydro-10-4-2-(4-pyridinyl)ethyl!phenyl!sulfonyl!dibenzb,f! 1,4!oxazepine, monohydrochloride], for which the responders at 30 mg/kg in experiment [1] is 50%. The “PGE ANTAGONISM IN GUINEA PIG ILEUM Dose Ratio (DR)” value in experiment [2] is on record as 1.0.

With `O=C(NCc1ccncc1)c1ccc(S(=O)(=O)N2Cc3ccccc3Oc3ccc(Cl)cc32)cc1` [Example 4, 4-(8-chlorodibenzb,f! 1,4!oxazepin-10(11H)yl)sulfonyl!-N-(4-pyridinylmethyl)benzamide, monohydrochloride], the responders at 30 mg/kg in experiment [1] is 60%.

For `O=C(NCc1cccnc1)c1ccc(S(=O)(=O)N2Cc3ccccc3Oc3ccc(Cl)cc32)cc1` [Example 5, 4-(8-chlorodibenzb,f! 1,4!oxazepin-10(11H)yl) sulfonyl!-N-(3-pyridinylmethyl)benzamide, monohydrochloride], in experiment [1], the responders at 30 mg/kg was 30%. Besides, the “PGE ANTAGONISM IN GUINEA PIG ILEUM Dose Ratio (DR)” value in experiment [2] is 4.4.

Take `O=C(c1ccc(/C=C\c2ccncc2)cc1)N1Cc2ccccc2Oc2ccc(Cl)cc21` [Example 8, Compound E, 8-chloro-10,11-dihydro-10-4-2Z-(4-pyridinyl)ethenyl!benzoyl!dibenz b,f! 1 ,4!oxazepine, hydrochloride]: in experiment [1], the responders at 10 mg/kg amounted to 90%. Further, the “PGE ANTAGONISM IN GUINEA PIG ILEUM Dose Ratio (DR)” value in experiment [2] was 4.8.

Turning to `O=C(c1ccc(CCc2ccncc2)cc1)N1Cc2ccccc2Oc2ccc(Cl)cc21` [Example 8, Compound F, 8-chloro-10,11-dihydro-10-4-2-(4-pyridinyl)ethyl!benzoyl!dibenz b,f! 1,4! oxazepine, hydrochloride], the responders at 10 mg/kg in experiment [1] amounted to 90%. Also, the “PGE ANTAGONISM IN GUINEA PIG ILEUM Dose Ratio (DR)” value in experiment [2] is on record as 1.1.

Turning to `O=C(NCc1ccncc1)c1ccc(C(=O)N2Cc3ccccc3Oc3ccc(Cl)cc32)cc1` [Example 9, 4-(8-chlorodibenzb,f! 1,4!oxazepin-10(11H)-yl)carbonyl!-N-(4-pyridinylmethyl)benzamide, hydrochloride], the responders at 10 mg/kg in experiment [1] came out at 80%. In addition, in experiment [2], the “PGE ANTAGONISM IN GUINEA PIG ILEUM Dose Ratio (DR)” value amounted to 2.29.

Turning to `O=C(NCc1cccnc1)c1ccc(C(=O)N2Cc3ccccc3Oc3ccc(Cl)cc32)cc1` [Example 10, 4-(8-chlorodibenzb,f! 1,4!oxazepin-10(11H)yl)carbonyl!-N-f3,pyridinylmethyl)benzamide, hydrochloride], the responders at 30 mg/kg in experiment [1] is 40%. Besides, in experiment [2], the “PGE ANTAGONISM IN GUINEA PIG ILEUM Dose Ratio (DR)” value was determined as 3.2.

With `O=C(NCc1ccncc1)c1ccccc1C(=O)N1Cc2ccccc2Oc2ccc(Cl)cc21` [Example 12, 2-(8-chlorodibenzb,f! 1,4!oxazepin-10(11H)yl)carbonyl!-N-(4-pyridinylmethyl)benzamide, hydrochloride], in experiment [1], the responders at 30 mg/kg is 33.3%. Moreover, in experiment [2], the “PGE ANTAGONISM IN GUINEA PIG ILEUM Dose Ratio (DR)” value stood at 4.23.

`O=C(NCc1cccnc1)c1ccccc1C(=O)N1Cc2ccccc2Oc2ccc(Cl)cc21` [Example 13, 2-(8-chlorodibenzb,f! 1,4!oxazepin-10 f 11H)yl)carbonyl!-N-(3-pyridinylmethyl)benzamide, hydrochloride]: in experiment [1], the responders at 30 mg/kg was 50%. Further, in experiment [2], the “PGE ANTAGONISM IN GUINEA PIG ILEUM Dose Ratio (DR)” value amounted to 1.10.

As for `O=C(NCc1ccccn1)c1ccccc1C(=O)N1Cc2ccccc2Oc2ccc(Cl)cc21` [Example 14, 2-(8-chlorodibenzb,f! 1,4!oxazepin-10(11H)-yl) carbonyl!-N-(2-pyridinylmethyl!benzamide, dihydrochloride], the responders at 30 mg/kg in experiment [1] is 30%. For the same molecule, in experiment [2], the “PGE ANTAGONISM IN GUINEA PIG ILEUM Dose Ratio (DR)” value is 4.07.

`O=C(NCc1ccncc1)c1cccc(C(=O)N2Cc3ccccc3Oc3ccc(Cl)cc32)c1` [Example 16, 3-f 8-chlorodibenz b,f! 1,4!oxazepin-10(11H)yl)carbonyl!-N-(4-pyridinylmethyl)benzamide, monohydrochloride]: the responders at 30 mg/kg in experiment [1] is 80%. Also, the “PGE ANTAGONISM IN GUINEA PIG ILEUM Dose Ratio (DR)” value in experiment [2] was 4.67.

In the case of `O=C(NCc1cccnc1)c1cccc(C(=O)N2Cc3ccccc3Oc3ccc(Cl)cc32)c1` [Example 17, 3-(8-chlorodibenzb,f! 1,4!oxazepin-10(11H!yl!carbonyl!-N-(3-pyridinylmethyl)benzamide, monohydrochloride], in experiment [1], the responders at 30 mg/kg was 50%. Further, in experiment [2], the “PGE ANTAGONISM IN GUINEA PIG ILEUM Dose Ratio (DR)” value was determined as 66.0.

Consider `O=C(NCc1ccccn1)c1cccc(C(=O)N2Cc3ccccc3Oc3ccc(Cl)cc32)c1` [Example 18, 3-(8-chlorodibenzb,f! 1,4!oxazepin-10(11H)yl)carbonyl!-N-(2-pyridinylmethyl!benzamide, hydrochloride], for which the responders at 30 mg/kg in experiment [1] was 70%. Moreover, the “PGE ANTAGONISM IN GUINEA PIG ILEUM Dose Ratio (DR)” value in experiment [2] turned out to be 114.

Consider `O=C(NCc1ccncc1)c1ccc(CN2Cc3ccccc3Oc3ccc(Cl)cc32)cc1` [Example 27, 4-(8-chlorodibenzb,f! 1,4!oxazepin-10(11H)yl)methyl!-N-(4-pyridinylmethyl)benzamide, hydrochloride], for which the responders at 30 mg/kg in experiment [1] was 50%. In addition, in experiment [2], the “PGE ANTAGONISM IN GUINEA PIG ILEUM Dose Ratio (DR)” value worked out at 22.7.

As for `O=C(NCc1cccnc1)c1ccc(CN2Cc3ccccc3Oc3ccc(Cl)cc32)cc1` [Example 28, 4-(8-chlorodibenzb,f! 1,4!oxazepin-10(11H)yl)methyl!-N-(3-pyridinylmethyl)benzamide, hydrochloride], the responders at 30 mg/kg in experiment [1] was 60%. In addition, the “PGE ANTAGONISM IN GUINEA PIG ILEUM Dose Ratio (DR)” value in experiment [2] came to 3.59.

For the molecule `O=C(NCc1ccccn1)c1ccc(CN2Cc3ccccc3Oc3ccc(Cl)cc32)cc1` [Example 29, 4-(8-chlorodibenz E b,f! 1,4!oxazepin-10(11H)yl)methyl!-N-(2-pyridinylmethyl)benzamide, hydrochloride], the responders at 30 mg/kg in experiment [1] was 50%. In experiment [2], the “PGE ANTAGONISM IN GUINEA PIG ILEUM Dose Ratio (DR)” value came to 10.4.

For the molecule `O=C(NCc1ccncc1)c1cccc(C(=O)N2Cc3ccccc3Oc3ccc(Cl)cc32)n1` [Example 30, 6-(8-chlorodibenzb,f! 1,4!oxazepin-10(11H)yl)carbonyl!-N-(4-pyridinylmethyl)-2-pyridinecarboxamide, hydrochloride], the responders at 30 mg/kg in experiment [1] is 70%. Besides, in experiment [2], the “PGE ANTAGONISM IN GUINEA PIG ILEUM Dose Ratio (DR)” value came out at 0.81.

On to `O=C(NCc1cccnc1)c1cccc(C(=O)N2Cc3ccccc3Oc3ccc(Cl)cc32)n1` [Example 31, 6-(8-chlorodibenzb,f! 1,4!oxazepin-10(11H)yl)carbonyl!-N-(3-pyridinylmethyl)-2-pyridinecarboxamide, hydrochloride], for which the responders at 30 mg/kg in experiment [1] was 60%. In addition, the “PGE ANTAGONISM IN GUINEA PIG ILEUM Dose Ratio (DR)” value in experiment [2] came to 1.70.

Consider `O=C(NCc1ccccn1)c1cccc(C(=O)N2Cc3ccccc3Oc3ccc(Cl)cc32)n1` [Example 32, 6-(8-chlorodibenzb,f! 1,4!oxazepin-10(11H)yl)carbonyl!-N,(2-pyridinylmethyl)-2-pyridinecarboxamide, hydrochloride], for which the responders at 30 mg/kg in experiment [1] is 30%. In experiment [2], the “PGE ANTAGONISM IN GUINEA PIG ILEUM Dose Ratio (DR)” value amounted to 0.63.

For the molecule `O=C(NCc1ccncc1)c1ccc(CN2Cc3ccccc3Oc3ccc(Cl)cc32)cn1` [Example 34, 5-(8-chlorodibenzb,f! 1,4!oxazepin-10(11H)yl)methyl!-N-(4-pyridinylmethyl)-2-pyridinecarboxamide, monohydrochloride], the responders at 30 mg/kg in experiment [1] was 20%. Besides, the “PGE ANTAGONISM IN GUINEA PIG ILEUM Dose Ratio (DR)” value in experiment [2] was found to be 1.16.

In the case of `O=C(NCc1cccnc1)c1ccc(CN2Cc3ccccc3Oc3ccc(Cl)cc32)cn1` [Example 35, 5-(8-chlorodibenzb,f! 1,4!oxazepin-10(11H)yl)methyl!-N-(3-pyridinylmethyl)-2-pyridinecarboxamide, monohydrochloride], the responders at 30 mg/kg in experiment [1] is 70%.

Take `O=C(NCc1ccccn1)c1ccc(CN2Cc3ccccc3Oc3ccc(Cl)cc32)cn1` [Example 36, 5-(8-chlorodibenzb,f! 1,4!oxazepin-10(11H)yl)methyl!-N-(2-pyridinylmethyl!-2-pyridinecarboxamide, monohydrochloride]: the responders at 30 mg/kg in experiment [1] is 77.8%. Also, the “PGE ANTAGONISM IN GUINEA PIG ILEUM Dose Ratio (DR)” value in experiment [2] came to 2.6.
